{"source": "patent US12605461B2", "about": "“Hydrogel compositions and uses thereof” (priority 2019, dated 2026)", "key": {"BT474 cells": {"test_system": "BT474 cells", "test": "Drug screening, BT474 (RealTime-Glo MT)", "assay_type": "cell-based, human", "method": "(§1) The following example describes experiments conducted to calculate IC50 values using a non-linear fit in Graphpad Prism by GraphPad Software Inc.\n(§2) Cells grown in 2D were dosed starting after 24 h with either EHT-1864, AZD6482, Maritoclax, ZSTK474, Afatinib, TW-37, ABT-199, ABT-263 and Temsirolimus between 50 nM and up to 20 μM using an Hewlett-Packard (HP) D300 digital dispenser containing up to 0.2% DMSO then treated again 48 h following the first dose and ended after 72 h of treatment. Cells grown in 3D were dosed after 14 days with up to 0.2% DMSO every 48 h for 7 days. Cell viability was assessed by removing media and replacing it with 100 μL of sterile RealTime-Glo MT (Promega) which was diluted 1000× in media warmed to 37° C. After 1 h luminescence was detected using a Tecan microplate reader (Life Sciences) with 1 second integration time. Cell viability was calculated by subtracting background luminescence from all groups; treatment was compared to control wells, which received up to 0.2% DMSO. Data represents 3 independent replicates consisting of different cell passages for each condition to calculate the mean and standard deviation of cell viability."}, "MDA-MB-468 cells [1]": {"test_system": "MDA-MB-468 cells", "test": "Drug screening, MDA-MB-468 (PrestoBlue)", "assay_type": "cell-based", "conditions": "Homo sapiens, treated 7 days", "method": "as §1\nCells were dosed with 0.1, 1, 5, 20 and 50 μM Erlotinib-HCl containing 0.27% DMSO every 48 h for 7 days. Cell viability was assessed by removing media and replacing it with 150 μL of sterile, PrestoBlue which was diluted 10× in media warmed to 37° C. After 2.5 hours fluorescence was detected using a Tecan microplate reader (Life Sciences) by exciting at 570 nm and detected at 590 nm. Cell viability was calculated by subtracting background fluorescence from all groups; treatment was compared to control wells, which received 0.27% DMSO. Data represents 3 independent replicates consisting of different cell passages for each condition to calculate the mean and standard deviation of cell viability."}, "[2]": {"test_system": "tumor derived mammary luminal epithelial cells", "test": "Drug screening with primary cells", "assay_type": "cell-based", "conditions": "human patient tumour luminal B breast cancer cells", "method": "as §2, with “dosed” for “dosed starting”, “Maritoclax” for “either EHT-1864, AZD6482, Maritoclax, ZSTK474, Afatinib, TW-37, ABT-199, ABT-263 and Temsirolimus”, “10” for “50”, “DMSO. IC50 values were calculated using a non-linear fit in Graphpad Prism by GraphPad Software Inc.” for “DMSO.”"}, "MDA-MB-468 cells [3]": {"test_system": "MDA-MB-468 cells", "test": "RGDOA cell adhesion assay", "assay_type": "cell-based, human", "conditions": "RGDOA 250-1000 μM conjugated to HA-oxime hydrogels for 1 hour", "method": "RGDOA Cell Adhesion assay: […] After gelling for 2 h at 37° C., 25 μL of 125, 250, 500, and 1000 μM RGDOA solutions in media described above were added to hydrogels. After treatment with RGDOA solutions for 1 h at 37° C., the media was removed and gels were washed three times with media at 25 μL per well. MDA-MB-468 cells were seeded on the surface of the hydrogels at a density of 3000 cells well^−1 in 25 μL of media and incubated for 30 min. Media was gently removed by pipette and replaced with PBS cooled to 4° C. […] Cells nuclei were stained with Hoechst 33342, 1/250 in PBS, 25 μL well^−1 for 4 h. Images were obtained using an Olympus confocal microscope at 10× magnification with z-stacks of 12 μm step size. Cell number was quantified using spot identification in Imaris 8 software by Bitplane. The fold change in cell number was calculated from control hydrogels containing no RGDOA peptide. A minimum of 3 independent replicates consisting of different cell passages were performed for each condition."}}, "note": "pIC50: −log10 of the molar value.", "data": [{"compound": "Cc1cc([C@@H](C)Nc2ccccc2C(=O)O)c2nc(N3CCOCC3)cc(=O)n2c1", "note": "[AZD6482]", "values": [{"measurement": "responsiveness in HA-oxime versus Matrigel or 2D TCPS", "setting": "BT474 cells; BT474 cells", "value": "more responsive"}]}, {"compound": "O=c1cc(CN2CCOCC2)occ1OCCCCCSc1ccnc2cc(C(F)(F)F)ccc12", "note": "[EHT-1864]", "values": [{"measurement": "responsiveness in HA-oxime versus Matrigel", "setting": "BT474 cells; BT474 cells", "value": "more responsive"}]}, {"compound": "FC(F)c1nc2ccccc2n1-c1nc(N2CCOCC2)nc(N2CCOCC2)n1", "note": "[ZSTK474]", "values": [{"measurement": "cell response between HA-oxime, Matrigel and 2D TCPS", "setting": "BT474 cells; BT474 cells", "value": "cell response did not always differ between the 3 culture conditions"}]}, {"compound": "C#Cc1cccc(Nc2ncnc3cc(OCCOC)c(OCCOC)cc23)c1", "note": "[erlotinib]", "values": [{"measurement": "pIC50", "setting": "MDA-MB-468 cells [1]; MDA-MB-468, MDA-MB-468 cultured in 3D (Matrigel, HA-oxime+/−Ln) 21 days", "value": "~5.35"}, {"measurement": "pIC50", "setting": "MDA-MB-468 cells [1]; MDA-MB-468, MDA-MB-468 grown on 2D TCPS 21 days", "value": 4.42}]}, {"compound": "O=C(c1ccccc1O)c1[nH]c(Cl)c(Cl)c1-n1c(C(=O)c2ccccc2O)cc(Cl)c1Cl", "note": "[maritoclax]", "values": [{"measurement": "sensitivity in 3D HA-oxime versus 2D TCPS", "setting": "[2]", "value": "significantly more sensitive"}, {"measurement": "sensitivity in HA-oxime versus 2D TCPS", "setting": "BT474 cells; BT474 cells", "value": "over tenfold more sensitive"}, {"measurement": "pIC50", "setting": "BT474 cells; BT474 cells cultured in 2D TCPS", "value": 5.26}, {"measurement": "pIC50", "setting": "BT474 cells; BT474 cells cultured in HA-oxime", "value": 6.23}]}, {"compound": "Acetyl-GRGDSPASSKK(OA)G [RGDOA]", "values": [{"measurement": "number of adherent MDA-MB-468 cells", "setting": "MDA-MB-468 cells [3]", "value": "increase in the number of adherent cells"}]}]}
